Measured values reported in ChEMBL document CHEMBL1201862, “PubChem BioAssay data set” (2004).
The source made the active and inactive calls.

Key:
Large T antigen = Large T antigen (Simian virus 40, UniProt P03070); format: functional, Betapolyomavirus macacae;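 note: Confirmatory-stage PubChem screen for compounds that inhibit SV40 T antigen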
ORF 73 = target: T1, ORF 73 (Human herpesvirus 8, UniProt O40947); assay: inhibitors of C-LANA binding to LBS DNA, dose response, biochemical, fluorescence polarization, cherry-picked samples (AID 504725); design: species or system Human gammaherpesvirus 8;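 note: fluorescence polarization of a labeled DNA duplex reporting LANA DNA binding; potency is for inhibitors that block LANA binding to the DNA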
T1 sequence (O40947 whole entry): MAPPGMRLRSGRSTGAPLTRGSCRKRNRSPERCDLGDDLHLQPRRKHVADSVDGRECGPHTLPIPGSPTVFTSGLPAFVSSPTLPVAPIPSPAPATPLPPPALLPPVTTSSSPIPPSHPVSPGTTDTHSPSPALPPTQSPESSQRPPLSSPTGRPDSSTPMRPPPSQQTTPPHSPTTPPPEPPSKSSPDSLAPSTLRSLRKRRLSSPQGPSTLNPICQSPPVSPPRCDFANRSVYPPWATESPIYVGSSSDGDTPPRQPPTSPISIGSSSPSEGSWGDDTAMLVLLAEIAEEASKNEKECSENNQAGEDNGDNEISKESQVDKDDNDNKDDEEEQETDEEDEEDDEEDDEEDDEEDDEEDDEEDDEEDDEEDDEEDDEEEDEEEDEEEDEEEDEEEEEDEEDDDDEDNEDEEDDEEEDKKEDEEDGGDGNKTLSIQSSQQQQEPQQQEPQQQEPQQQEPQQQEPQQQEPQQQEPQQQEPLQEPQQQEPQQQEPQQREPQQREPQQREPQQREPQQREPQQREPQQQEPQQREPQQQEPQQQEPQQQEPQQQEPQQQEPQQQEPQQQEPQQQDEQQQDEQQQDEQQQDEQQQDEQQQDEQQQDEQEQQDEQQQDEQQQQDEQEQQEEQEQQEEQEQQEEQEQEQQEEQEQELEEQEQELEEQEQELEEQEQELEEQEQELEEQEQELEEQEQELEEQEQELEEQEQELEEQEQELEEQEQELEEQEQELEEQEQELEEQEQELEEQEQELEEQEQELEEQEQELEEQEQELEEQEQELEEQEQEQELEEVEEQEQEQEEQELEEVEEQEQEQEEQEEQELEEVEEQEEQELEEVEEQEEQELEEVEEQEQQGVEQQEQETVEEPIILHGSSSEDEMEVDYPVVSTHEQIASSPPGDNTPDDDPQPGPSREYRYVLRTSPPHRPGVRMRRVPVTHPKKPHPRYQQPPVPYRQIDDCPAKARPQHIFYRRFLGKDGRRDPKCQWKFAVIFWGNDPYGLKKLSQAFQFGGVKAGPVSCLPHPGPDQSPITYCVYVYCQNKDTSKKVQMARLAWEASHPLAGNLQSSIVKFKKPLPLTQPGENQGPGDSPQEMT

CHO = assay: cytotoxicity in TLR9-MyD88 CHO cells, dose response, cytotoxicity control for TLR9-MyD88 binding inhibitor project, cell-based, luminescence (AID 588339); format: functional, hamster; settings: Cricetulus griseus;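 note: CHO cells stably coexpressing TLR9 and MyD88 fusions from primary screen; compound exposure lasted 48 hours before viability readout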
[1] = target: UDP-galactopyranose mutase (Mycobacterium tuberculosis, UniProt P9WIQ1); assay: Inhibitors of Mycobacterium tuberculosis UDP-galactopyranose mutase (UGM) enzyme Measured in Biochemical System Using Plate Reader - 2105-02_Inhibitor_Dose_CherryPick_Activity. [Related pubchem assays (depositor defined):AID504439]
Insulin-degrading enzyme [2] = target: T2, Insulin-degrading enzyme (Homo sapiens, UniProt P14735); assay: activators of recombinant IDE enzyme, dose response, counter-screen for IDE activator project, biochemical, fluorescence polarization (AID 588681)
T2 sequence (P14735 whole entry): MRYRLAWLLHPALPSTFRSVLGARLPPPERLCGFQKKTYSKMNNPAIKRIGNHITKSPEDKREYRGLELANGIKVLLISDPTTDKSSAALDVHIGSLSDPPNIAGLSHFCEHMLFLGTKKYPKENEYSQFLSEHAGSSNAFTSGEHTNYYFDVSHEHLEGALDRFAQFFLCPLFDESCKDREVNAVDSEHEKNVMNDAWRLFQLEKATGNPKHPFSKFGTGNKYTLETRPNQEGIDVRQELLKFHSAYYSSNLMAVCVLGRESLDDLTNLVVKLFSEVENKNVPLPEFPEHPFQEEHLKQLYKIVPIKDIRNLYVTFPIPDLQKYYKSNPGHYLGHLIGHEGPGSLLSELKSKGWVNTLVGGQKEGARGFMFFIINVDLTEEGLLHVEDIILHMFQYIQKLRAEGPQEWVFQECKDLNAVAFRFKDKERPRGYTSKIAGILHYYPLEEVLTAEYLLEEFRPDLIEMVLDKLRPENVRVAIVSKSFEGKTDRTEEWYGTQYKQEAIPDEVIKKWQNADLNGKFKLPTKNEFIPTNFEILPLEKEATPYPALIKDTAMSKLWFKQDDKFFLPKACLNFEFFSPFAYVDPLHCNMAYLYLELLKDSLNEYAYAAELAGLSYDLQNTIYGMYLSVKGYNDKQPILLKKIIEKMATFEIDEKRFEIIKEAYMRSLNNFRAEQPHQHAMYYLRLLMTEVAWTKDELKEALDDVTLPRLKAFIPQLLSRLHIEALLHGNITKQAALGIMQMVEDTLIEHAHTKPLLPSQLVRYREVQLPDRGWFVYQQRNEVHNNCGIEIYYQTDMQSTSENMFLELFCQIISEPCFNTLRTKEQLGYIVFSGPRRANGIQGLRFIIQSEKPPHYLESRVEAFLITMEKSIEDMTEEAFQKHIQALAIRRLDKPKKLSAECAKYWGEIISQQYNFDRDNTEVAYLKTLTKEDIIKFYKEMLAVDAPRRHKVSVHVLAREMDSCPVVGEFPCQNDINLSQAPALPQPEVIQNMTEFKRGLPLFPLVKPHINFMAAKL

Keap1/Nrf2 = Keap1/Nrf2 (Homo sapiens, UniProt Q14145); assay: Keap1-Nrf2 protein-protein interaction inhibitors, dose response, biochemical, fluorescence polarization, cherry-picked samples (AID 588683)
Beta Lactamase = Beta Lactamase (Pseudomonas aeruginosa, UniProt Q932Y6); assay: beta-lactamase reporter inhibitor potency, dose response, artefact control for TLR9-MyD88 binding inhibitor project, BLA reporter cells, FRET fluorescence (AID 588341); format: cell-based;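 note: cell based assay in CHO-K1 cells stably expressing beta-lactamase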
Insulin-degrading enzyme [3] = target: T2, Insulin-degrading enzyme; assay: activators of endogenous IDE in HEK cells, dose response, cell-based, fluorescence polarization (AID 588439); format: functional
HEK293 [4] = assay: HEK cell cytotoxicity by LDH release, dose response, cytotoxicity control for IDE activator project, fluorescence, HEK cells (AID 588440); format: functional, cell-based; settings: Homo sapiens;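 note: cytotoxicity by LDH release measuring loss of membrane integrity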
[5] = target: Dual specificity tyrosine-phosphorylation-regulated kinase 1A (Rattus norvegicus, UniProt Q63470); format: biochemical, Homo sapiens
HEK293 [6] = assay: optical interference in Abeta FP readout, dose response, artefact control for IDE activator project, biochemical, fluorescence polarization (AID 588442); format: functional, cell-based; settings: Homo sapiens
[7] = target: T3, Rac GTPase-activating protein 1 (Homo sapiens, UniProt Q9H0H5); assay: MgcRacGAP GTPase-activating activity inhibitors, confirmation, biochemical, ADP Hunter fluorescence, primary and confirmatory (AID 624330); format: functional
T3 sequence (Q9H0H5 whole entry): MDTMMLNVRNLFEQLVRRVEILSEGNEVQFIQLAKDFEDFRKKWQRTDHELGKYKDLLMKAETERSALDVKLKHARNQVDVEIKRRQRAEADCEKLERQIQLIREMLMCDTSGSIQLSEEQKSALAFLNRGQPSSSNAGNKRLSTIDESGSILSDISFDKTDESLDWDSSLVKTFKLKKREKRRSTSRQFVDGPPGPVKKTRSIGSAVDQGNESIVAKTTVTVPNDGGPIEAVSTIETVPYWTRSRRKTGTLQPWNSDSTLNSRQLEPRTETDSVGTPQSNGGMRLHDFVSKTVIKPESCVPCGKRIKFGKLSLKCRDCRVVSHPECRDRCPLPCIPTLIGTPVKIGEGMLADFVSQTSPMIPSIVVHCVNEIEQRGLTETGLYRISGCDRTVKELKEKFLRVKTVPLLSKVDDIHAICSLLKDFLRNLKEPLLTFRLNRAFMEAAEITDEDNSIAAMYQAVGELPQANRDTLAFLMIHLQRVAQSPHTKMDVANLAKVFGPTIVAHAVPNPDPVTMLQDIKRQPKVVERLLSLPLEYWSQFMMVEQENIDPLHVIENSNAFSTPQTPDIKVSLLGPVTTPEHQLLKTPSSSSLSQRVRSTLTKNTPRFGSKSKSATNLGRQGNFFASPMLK

[8] = target: T4, Microphthalmia-associated transcription factor (Homo sapiens, UniProt O75030); assay: TRPM1 promoter luciferase signal decrease, dose response, MITF inhibitor project, cell-based, SK-MEL-5, cherry-picked, set 3 (AID 493073); format: functional
T4 sequence (O75030 whole entry): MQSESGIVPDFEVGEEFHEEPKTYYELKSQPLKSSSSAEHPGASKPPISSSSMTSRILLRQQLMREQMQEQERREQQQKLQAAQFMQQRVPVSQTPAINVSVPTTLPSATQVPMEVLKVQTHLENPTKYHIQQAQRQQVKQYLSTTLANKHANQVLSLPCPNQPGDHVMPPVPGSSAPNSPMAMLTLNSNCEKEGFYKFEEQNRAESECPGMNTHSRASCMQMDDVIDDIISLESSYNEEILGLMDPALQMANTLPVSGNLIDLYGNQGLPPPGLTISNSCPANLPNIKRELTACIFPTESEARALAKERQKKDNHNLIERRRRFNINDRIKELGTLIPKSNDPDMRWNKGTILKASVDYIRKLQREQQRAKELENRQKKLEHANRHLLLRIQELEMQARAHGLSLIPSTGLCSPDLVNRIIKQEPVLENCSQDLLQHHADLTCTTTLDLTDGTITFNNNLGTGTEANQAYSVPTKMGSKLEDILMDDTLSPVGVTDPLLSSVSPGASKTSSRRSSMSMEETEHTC

[9] = target: T5, Replicative DNA helicase DnaB (Mycobacterium tuberculosis, UniProt P9WMR3); assay: DnaB intein splicing inhibitors, dose response, biochemical, cell-free fluorescence (AID 449749); format: functional
T5 sequence (P9WMR3 whole entry): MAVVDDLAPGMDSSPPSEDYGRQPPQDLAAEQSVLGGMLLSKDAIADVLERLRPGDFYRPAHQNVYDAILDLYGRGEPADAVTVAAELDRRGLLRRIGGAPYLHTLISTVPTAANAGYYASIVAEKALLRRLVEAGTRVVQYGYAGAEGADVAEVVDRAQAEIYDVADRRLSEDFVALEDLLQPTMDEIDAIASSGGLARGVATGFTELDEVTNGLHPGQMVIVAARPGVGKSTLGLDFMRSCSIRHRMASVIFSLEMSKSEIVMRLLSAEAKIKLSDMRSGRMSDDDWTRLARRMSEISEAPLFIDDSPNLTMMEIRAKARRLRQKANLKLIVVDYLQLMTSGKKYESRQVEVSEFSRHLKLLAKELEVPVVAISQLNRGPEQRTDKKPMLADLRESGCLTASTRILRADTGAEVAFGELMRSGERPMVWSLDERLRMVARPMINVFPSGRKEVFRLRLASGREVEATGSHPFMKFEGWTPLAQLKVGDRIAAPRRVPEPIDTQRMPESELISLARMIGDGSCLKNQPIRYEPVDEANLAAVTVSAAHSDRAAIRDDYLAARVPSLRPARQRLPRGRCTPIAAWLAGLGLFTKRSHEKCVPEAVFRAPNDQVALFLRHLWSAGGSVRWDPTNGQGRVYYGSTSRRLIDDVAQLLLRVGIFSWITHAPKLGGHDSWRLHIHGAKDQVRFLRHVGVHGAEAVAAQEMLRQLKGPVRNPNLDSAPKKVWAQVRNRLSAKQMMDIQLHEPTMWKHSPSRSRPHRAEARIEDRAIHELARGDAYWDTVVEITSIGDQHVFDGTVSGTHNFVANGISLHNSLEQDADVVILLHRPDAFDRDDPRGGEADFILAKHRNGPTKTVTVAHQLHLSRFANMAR

Protein RecA = target: T6, Protein RecA (Mycobacterium tuberculosis, UniProt P9WHJ3); assay: Fluorescence Cell-Free Homogeneous Dose Retest to Identify Inhibitors of RecA-Intein Splicing Activity. [Related pubchem assays (depositor defined):AID2097, AID2223, AID489010, AID492950]; format: functional
T6 sequence (P9WHJ3 whole entry): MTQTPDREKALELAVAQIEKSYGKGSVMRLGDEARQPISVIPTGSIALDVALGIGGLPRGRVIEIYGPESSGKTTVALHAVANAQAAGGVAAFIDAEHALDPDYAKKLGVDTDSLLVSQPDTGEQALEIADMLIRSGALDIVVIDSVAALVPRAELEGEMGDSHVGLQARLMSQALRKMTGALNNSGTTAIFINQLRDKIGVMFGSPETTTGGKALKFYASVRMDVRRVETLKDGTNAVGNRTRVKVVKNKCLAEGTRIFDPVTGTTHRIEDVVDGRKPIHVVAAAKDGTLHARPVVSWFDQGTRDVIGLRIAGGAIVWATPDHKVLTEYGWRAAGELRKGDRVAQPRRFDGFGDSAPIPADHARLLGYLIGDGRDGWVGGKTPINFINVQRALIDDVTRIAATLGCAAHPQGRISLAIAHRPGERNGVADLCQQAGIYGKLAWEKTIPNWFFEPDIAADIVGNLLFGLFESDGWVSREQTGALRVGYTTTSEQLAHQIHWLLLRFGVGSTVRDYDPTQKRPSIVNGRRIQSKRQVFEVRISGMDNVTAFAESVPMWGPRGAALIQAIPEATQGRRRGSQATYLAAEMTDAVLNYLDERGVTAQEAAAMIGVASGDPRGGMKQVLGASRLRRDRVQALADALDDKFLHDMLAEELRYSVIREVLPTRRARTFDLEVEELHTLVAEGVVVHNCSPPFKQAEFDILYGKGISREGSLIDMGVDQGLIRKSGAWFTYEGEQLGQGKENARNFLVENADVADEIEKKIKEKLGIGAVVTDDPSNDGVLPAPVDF

A-375 [10] = assay: MITF: Counter assay: A375 proliferation Measured in Cell-Based System Using Plate Reader - 2084-03_Inhibitor_Dose_DryPowder_Activity. [Related pubchem assays (depositor defined):AID488944]; format: functional; settings: Homo sapiens
A-375 [11] = assay: A375 melanoma cell viability reduction, dose response, counter-screen for MITF modulator project, cherry-pick samples, set 2 (AID 540335); format: functional, cell-based; settings: Homo sapiens

Chain of Keap1/Nrf2 (Q16236 whole entry): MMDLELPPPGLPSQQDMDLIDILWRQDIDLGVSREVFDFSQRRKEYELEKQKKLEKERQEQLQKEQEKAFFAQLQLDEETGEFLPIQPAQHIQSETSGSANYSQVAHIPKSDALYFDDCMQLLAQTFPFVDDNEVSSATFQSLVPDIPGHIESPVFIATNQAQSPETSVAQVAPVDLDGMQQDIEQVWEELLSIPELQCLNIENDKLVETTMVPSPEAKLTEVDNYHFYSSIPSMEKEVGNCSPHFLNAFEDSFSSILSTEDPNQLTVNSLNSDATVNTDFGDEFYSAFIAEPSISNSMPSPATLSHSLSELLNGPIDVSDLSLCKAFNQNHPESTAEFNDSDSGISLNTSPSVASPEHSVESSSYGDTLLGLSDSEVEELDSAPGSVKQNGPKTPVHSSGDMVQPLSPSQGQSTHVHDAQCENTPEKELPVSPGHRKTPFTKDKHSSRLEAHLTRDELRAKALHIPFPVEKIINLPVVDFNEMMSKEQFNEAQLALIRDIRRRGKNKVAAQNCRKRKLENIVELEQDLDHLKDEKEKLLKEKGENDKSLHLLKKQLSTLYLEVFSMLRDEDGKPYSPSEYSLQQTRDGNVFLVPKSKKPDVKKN
Chain of Keap1/Nrf2 (Q14145 whole entry): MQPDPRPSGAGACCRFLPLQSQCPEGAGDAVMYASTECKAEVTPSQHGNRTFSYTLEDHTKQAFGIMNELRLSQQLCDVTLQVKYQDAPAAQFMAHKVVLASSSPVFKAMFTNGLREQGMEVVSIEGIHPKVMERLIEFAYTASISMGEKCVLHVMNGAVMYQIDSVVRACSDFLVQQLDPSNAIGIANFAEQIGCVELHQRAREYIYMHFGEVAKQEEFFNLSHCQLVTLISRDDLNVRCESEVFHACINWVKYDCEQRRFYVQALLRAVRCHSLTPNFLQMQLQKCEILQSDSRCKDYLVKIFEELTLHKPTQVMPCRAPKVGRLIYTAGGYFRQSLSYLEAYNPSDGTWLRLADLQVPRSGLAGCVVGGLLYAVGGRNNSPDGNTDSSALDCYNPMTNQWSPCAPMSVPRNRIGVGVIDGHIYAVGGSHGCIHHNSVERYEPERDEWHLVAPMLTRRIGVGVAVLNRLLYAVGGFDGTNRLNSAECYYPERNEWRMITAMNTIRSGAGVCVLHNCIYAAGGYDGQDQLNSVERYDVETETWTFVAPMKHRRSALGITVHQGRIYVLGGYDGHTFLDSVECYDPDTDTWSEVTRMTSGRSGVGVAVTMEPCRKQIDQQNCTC
Chain of UDP-galactopyranose mutase (P9WIQ1 whole entry): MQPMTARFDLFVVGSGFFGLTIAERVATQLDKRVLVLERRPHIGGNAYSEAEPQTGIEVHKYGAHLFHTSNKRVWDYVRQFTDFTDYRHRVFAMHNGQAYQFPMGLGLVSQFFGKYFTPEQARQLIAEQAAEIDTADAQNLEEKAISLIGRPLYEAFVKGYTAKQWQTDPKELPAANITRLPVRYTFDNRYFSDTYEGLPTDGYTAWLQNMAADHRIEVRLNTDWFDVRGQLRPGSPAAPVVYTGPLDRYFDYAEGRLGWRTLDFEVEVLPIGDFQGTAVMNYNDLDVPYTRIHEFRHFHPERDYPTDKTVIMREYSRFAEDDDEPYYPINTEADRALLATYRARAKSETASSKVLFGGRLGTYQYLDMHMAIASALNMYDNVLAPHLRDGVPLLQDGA
Chain of Large T antigen (P03070 whole entry): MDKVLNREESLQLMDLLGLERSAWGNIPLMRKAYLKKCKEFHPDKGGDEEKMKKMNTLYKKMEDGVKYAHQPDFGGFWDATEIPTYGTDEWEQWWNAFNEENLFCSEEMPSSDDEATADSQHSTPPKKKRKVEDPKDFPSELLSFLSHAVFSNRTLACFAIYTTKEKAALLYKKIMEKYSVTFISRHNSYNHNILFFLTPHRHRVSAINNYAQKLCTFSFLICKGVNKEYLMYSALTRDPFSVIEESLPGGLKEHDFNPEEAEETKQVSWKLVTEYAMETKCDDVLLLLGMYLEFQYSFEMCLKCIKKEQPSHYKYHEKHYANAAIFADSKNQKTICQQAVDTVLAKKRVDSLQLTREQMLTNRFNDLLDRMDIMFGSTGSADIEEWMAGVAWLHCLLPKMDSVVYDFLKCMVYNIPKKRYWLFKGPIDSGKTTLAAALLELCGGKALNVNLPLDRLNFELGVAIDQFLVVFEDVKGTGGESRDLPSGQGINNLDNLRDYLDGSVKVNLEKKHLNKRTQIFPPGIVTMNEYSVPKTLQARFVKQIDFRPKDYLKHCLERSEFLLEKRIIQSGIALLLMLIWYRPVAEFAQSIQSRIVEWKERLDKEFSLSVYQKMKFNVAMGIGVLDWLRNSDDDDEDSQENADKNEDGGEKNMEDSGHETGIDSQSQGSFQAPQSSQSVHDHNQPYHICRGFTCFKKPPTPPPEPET
Chain of Beta Lactamase (Q932Y6 whole entry): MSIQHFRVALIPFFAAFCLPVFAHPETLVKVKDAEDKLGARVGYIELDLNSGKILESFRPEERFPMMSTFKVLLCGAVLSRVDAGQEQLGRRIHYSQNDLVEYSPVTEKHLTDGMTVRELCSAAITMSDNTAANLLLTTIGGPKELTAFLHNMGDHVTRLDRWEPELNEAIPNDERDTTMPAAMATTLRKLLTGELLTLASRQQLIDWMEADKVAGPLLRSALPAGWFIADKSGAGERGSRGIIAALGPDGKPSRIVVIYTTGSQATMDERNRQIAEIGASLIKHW

SMILES	IC50 (Large T antigen)	AC50 (ORF 73)	IC50 (CHO)	AC50 [1]	EC50 (Insulin-degrading enzyme [2])	AC50 (Keap1/Nrf2)	IC50 (Beta Lactamase)	EC50 (Insulin-degrading enzyme [3])	IC50 (HEK293 [4])	AC50 [5]	EC50 (HEK293 [6])	IC50 [7]	AC50 [8]	AC50 [9]	EC50 (Protein RecA)	AC50 (A-375 [10])	AC50 (A-375 [11])
CC1=NCCc2c1[nH]c1cc(O)ccc21	8.18 µM (active)	1.76 µM (active)	> 49.8 µM (inactive)	5.89 µM (active)	> 54.6 µM (inactive)	4.36 µM (active)	7.96 µM (active)	> 54.6 µM (inactive)	> 89.1 µM (inactive)	3.13 µM (active)	> 54.6 µM (inactive)	8.73 µM (active)					
Cc1c(C#N)c(NC(=O)CCl)n(Cc2cccs2)c1C													7.07 µM (active)	48 µM (active)	9.25 µM (active)	> 35 µM (active)	> 35 µM (active)
